# Experiments:
# HIV-1 AD8 strain [1] = assay: Antiviral activity test using the TZM-bl cell luciferase system; settings: for EC50: Human immunodeficiency virus 1, TZM-bl, 48 h
# Experimental: TZM-bl cells were seeded on 96-well cell culture plates at a density of 1 × 10^4 cells/well and cultured overnight. Each drug was twofold serially diluted from 10,000 to 0.15 nM and treated to cells. After a 30 min incubation period, viral infection was performed with 500 TCID50 of HIV-1 AD8. Cells were cultured for 48 h after infection and luciferase activity measured using Beetle-Lysis Juice (PJK GmbH, Kleinblittersdorf, Germany) according to the manufacturer’s instructions. Briefly, the medium was removed, and cells washed three times with 200 μl PBS. Next, 100 μl Beetle-Lysis Juice containing luciferin and ATP were added to each well and incubated for 5 min with protection from sunlight. Subsequently, luciferase activity was measured using a micro beta counter (PerkinElmer, Waltham, MA) after transferring solutions to a white 96-well plate. Anti-HIV efficacy of drugs was determined based on reduced expression of luciferase relative to the virus-only treatment group.
# Fig.1 Determination of antiviral activities of integrase inhibitors in the TZM-bl cell line system. Integrase inhibitors were serially diluted and incubated with 1 × 10^4 TZM-bl cells per well during 30 min, followed by infection with 500 TCID50 of HIV-1 AD8 strain. For determination of antiviral efficacy, luciferase activity was measured after 48 h of incubation. Cell culture media of non-infected and infected cells without HIV drug treatment were set as the negative and positive control, respectively.
# HIV-1 AD8 strain [2] = assay: p24 ELISA antiviral activity in infected MT2 cells; settings: for EC50: Human immunodeficiency virus 1, MT2, 120 h; for SI value (CC50/EC50): MT2 cell system
# Experimental: ELISA was conducted to detect HIV-1 p24 for assessment of antiviral activity using a HIV-1 p24 ELISA kit (XpressBio, Frederick, MD). To this end, MT2 cells seeded on a 96-well cell culture plate at a density of a 1 × 10^4 cells/well were infected with 500 TCID50 of HIV-1 AD8 strain. Each drug was serially diluted threefold (from 10,000 to 0.51 nM) for treatment of cells. After five days of culture at 37 °C with 5% CO2, 100 μl of culture medium was harvested and supernatant obtained by centrifugation for 5 min at 5000 rpm (8400 rcf), with storage at − 80 °C. Cell culture media of non-infected and infected cells without INI treatment were set as the negative and positive control, respectively. The ELISA procedure was conducted according to the manufacturer’s instructions. Briefly, samples were mixed with 20 μl lysis buffer, 200 μl aliquots pipetted into a microplate, and incubated for 1 h at 37 °C. After incubation, the contents of the wells were aspirated and microtitration plates washed six times with 350 μl wash buffer. Each well was treated with 100 μl detection antibody for 1 h at 37 °C, which was subsequently removed by washing under the same conditions. An aliquot (100 μl) of streptavidin-HRP conjugate was added into each well, followed by incubation at room temperature for 30 min. After washing under the same conditions, 100 μl substrate solution was immediately dispensed into each well and incubated for 30 min at room temperature with protection from direct sunlight. For termination of the reaction, 100 μl stop solution was added to each well and absorbance values at 450 nm immediately read using a microplate reader.
# MT2 cells infected with 500 TCID50 of HIV-1 AD8 strain were treated with a range of concentrations of each drug. At 5 days post-infection, cell culture media were harvested for p24 ELISA. Media of non-infected and infected cells without HIV drug treatment were set as the negative or positive control, respectively.
# [3] = Cell cytotoxicity by WST method (EZ-Cytox) in TZM-bl cells; format: cell-based; settings: human, 2 days incubation
# Experimental: (§1) To determine the cytotoxicity of anti-HIV drugs, cell viability was assessed via the water-soluble tetrazolium salt (WST) method using an EZ-Cytox kit (Daeil Lab Service, Seoul, Korea) according to the manufacturer’s instructions. […] Cells were treated with serial dilutions of each drug ([…] dilutions from 50,000 to 2.54 nM). On days 2 and 5 of incubation, 10 μl EZ-Cytox solution was added to each well and incubated for 2 h, followed by spectrophotometric measurement of absorbance at 540 nm.
# [4] = Cell cytotoxicity by WST method (EZ-Cytox) in MT2 cells; format: cell-based; settings: human, 5 days incubation
# Experimental: as §1
# HIV-1 integrase [5] = target: T1, HIV-1 integrase (Human immunodeficiency virus type 1 group M subtype B, UniProt P04585); assay: Strand transfer inhibition assay (HIV-1 integrase assay kit); format: biochemical; settings: read-out: strand transfer inhibitory activity
# T1 construct: 100 μl IN enzyme solution was added to each well; purchased XpressBio, Frederick, MD
# Experimental: The strand transfer assay was performed using the HIV-1 integrase assay kit (XpressBio, Frederick, MD) according to the manufacturer’s instructions. Briefly, 100 μl of 1X donor substrate DNA (DS DNA) solution was added to each well and incubated for 30 min at 37 °C. The liquid was aspirated from the wells and washed 5 times with 300 μl wash buffer, followed by incubation with 200 μl blocking buffer per well for 30 min at 37 °C. Following aspiration of the liquid, wells were washed three times with 200 μl reaction buffer. Next, 100 μl IN enzyme solution was added to each well and incubated under similar conditions followed by removal of liquid and three washes with 200 μl reaction buffer. Each test sample was fivefold serially diluted (from 1000 to 8 μM) in reaction buffer and 50 μl aliquots added per well. After 5 min incubation at room temperature, 50 μl 1X target substrate DNA (TS DNA) solution was directly added to the 50 μl test sample within the wells. Reactions were mixed by tapping the plate gently 3–5 times and incubating for 30 min at 37 °C, washed 5 times with 300 μl wash solution and incubated with 100 μl HRP antibody for 30 min at 37 °C. After washing the plate under the same conditions, 100 μl TMB peroxidase substrate solution was added per well and incubated for 10 min at room temperature. To terminate the reaction, 100 μl TMB stop solution was directly added to wells and absorbance read using a plate reader at 450 nm.
# Fig.3 Strand transfer inhibition efficiency of catalytic and non-catalytic integrase inhibitors. a Schematic diagram of the strand transfer assay process. The yellow and blue boxes represent the response under conditions of no IN inhibitor or INSTI, respectively. b Integrase inhibitor compounds at a range of concentrations generated from fivefold serial dilutions were used to treat 3′-end cleaved LTR DS DNA by integrase. After incubation, TS DNA was added to each well for the strand transfer reaction. The reaction products were detected colorimetrically using a HRP-labeled antibody against modified target DNA. "No integrase" and "Integrase only" wells were set as the negative and positive control, respectively
# HIV-1 integrase [6] = target: T1, HIV-1 integrase; assay: 3'-processing inhibition assay (modified strand transfer assay, inhibitor pre-incubated with IN); format: biochemical; settings: 20 nM IN pre-incubated 30 min
# Experimental: To confirm the 3′-processing inhibition activity NCINI, the strand transfer inhibition assay was modified. The plate coating process with DS DNA was conducted in a similar manner. […] Reaction of integrase first with the drug before its reaction with DS DNA is a necessary step to validate the 3′-processing inhibitory activity of the compound. The integrase-inhibitor mixture was added to LTR DS DNA-conjugated 96-well plates. Subsequent steps were conducted in a similar manner as the strand transfer assay.
# The subsequent steps were the same as the strand transfer assay protocol (Fig. 4a).
# The 3′-processing inhibition assay was performed by modifying the protocol of the strand transfer assay. […] Before addition of LTR dsDNA, fivefold serially diluted integrase inhibitors were incubated with 20 nM integrase for 30 min. The integrase-inhibitor mixtures were treated with LTR dsDNA-conjugated 96-well plates. After incubation, target DNA was added to each well for the strand transfer reaction and the products detected colorimetrically using a HRP-labeled antibody against 3′-modified target DNA. "No integrase" and "integrase-only" wells were set as the negative and positive control, respectively
# [7] = test system: HxB2, NL4.3 and a recombinant NL4.3 strain; settings: against HxB2, NL4.3 and a recombinant NL4.3 strain; cited from earlier work
# [8] = target: integrase strand transfer; settings: does not inhibit strand transfer; cited from earlier work
SMILES,EC50 (HIV-1 AD8 strain [1]) [nM],EC50 (HIV-1 AD8 strain [2]) [nM],CC50 at 2 days [3] [nM],CC50 at 5 days [4] [nM],inhibition at 8 µM (HIV-1 integrase [5]) [%],inhibition at 1000 µM (HIV-1 integrase [5]; at 1000 μM) [%],"IN inhibition activity (3'-processing, modified protocol) (HIV-1 integrase [6]; at 3.2 μM) [%]","IN inhibition activity (3'-processing, modified protocol) (HIV-1 integrase [6]; at 2000 μM) [%]",EC50 [7] [nM],EC50 [8] [nM],SI value (CC50/EC50) (HIV-1 AD8 strain [2]),SI value (CC50/EC50) (HIV-1 AD8 strain [1]; TZM-bl cell system)
Cc1nc2ccccc2c(-c2ccc3c4c(ccnc24)CCO3)c1[C@H](OC(C)(C)C)C(=O)O [BI 224436],566,28.7,> 50000,> 50000,20,36,80.65,87.14,11 to 27,> 50000,–,–
"C[C@@H]1CCO[C@H]2Cn3cc(C(=O)NCc4ccc(F)cc4F)c(=O)c(O)c3C(=O)N12 [DTG, Dolutegravir]",1.6,< 0.51,> 50000,1740,> 50,–,–,–,–,–,> 3413.60,–
"COc1cc2c(cc1Cc1cccc(Cl)c1F)c(=O)c(C(=O)O)cn2[C@H](CO)C(C)C [EVG, Elvitegravir]",< 0.15,< 0.51,26000,1260,–,–,–,–,–,–,–,–
"Cc1nnc(C(=O)NC(C)(C)c2nc(C(=O)NCc3ccc(F)cc3)c(O)c(=O)n2C)o1 [RAL, Raltegravir]",10.4,0.58,> 50000,6420,> 50,–,–,–,–,–,"11,075.19",> 4816.96

# Reference: paper PMC7805210, “Study on suitable analysis method for HIV-1 non-catalytic integrase inhibitor” (Virology Journal, 2021)
